Each structure is given as a SMILES string. Like-named read-outs stand apart in the source and are kept apart here. Bounds are passed on as bounds.

As usually defined, the IC50 is the concentration that gives 50% inhibition.

The target in experiment [1] is Beta Secretase enzyme (BACE1) (Homo sapiens, UniProt P56817). Kind of experiment: In vitro enzymatic BACE FRET assay. Format: biochemical. In short, it runs like this:
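Readout: dequenched fluorescence (ex 488 nm/[…]) after neutralizing with Tris buffer. Reactions, begun by adding 50 nM quenched peptide substrate spanning the BACE cleavage site, were incubated one hour at pH 4.2 in 0.05 M acetate with 100 uM genapol and 10% final DMSO.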

The next experiment concerns the target T1, Cathepsin D (Cat D) (Homo sapiens, UniProt P07339).
T1 construct: Recombinant Cat D was expressed in CHO cells; made in house; host or cells: CHO cells
Kind of experiment: In vitro enzymatic Cathepsin D (Cat D) FRET assay. Format: biochemical. The conditions noted are these: read-out: CatD IC50. In short, it runs like this:
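FRET read-out: a fluorophore/quencher-labelled peptide substrate is cleaved by 9 nM Cat D (recombinant, CHO-expressed) following a one-hour preincubation with inhibitor dilutions in DMSO. Tris buffer added to neutralize pH ends the reaction before fluorescence measurement.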

The subject of experiment [2] is Aβ40 in conditioned medium of cells stably expressing Amyloid Precursor Protein (APP). Kind of experiment: In vitro BACE cell-based assay (HEK cell assay), Aβ40 sandwich ELISA. The note with it: Homo sapiens, HEK293. In short, it runs like this:
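Aβ40 in conditioned medium was quantified by time-resolved fluorescence sandwich ELISA (pAb40 capture 3 h at 4 °C, biotin-6E10 detection 2 h at 4 °C) after 24 h compound exposure of APP-expressing cells. Doses spanned 10 points from 100 μM or 10 μM top, 0.1% DMSO; IC50 was derived from percent of control.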
On the technique in general: In an ELISA, binding on a coated surface is turned into a signal by an enzyme label.

Where [3] appears, read: average IC50, enzyme assay, read-out: BACE1 FRET assay IC50.
[4] abbreviates: read-out: BACE1 FRET assay IC50.
Setting [5] is: average IC50, read-out: BACE1 FRET assay IC50.

Chain of Beta Secretase enzyme (BACE1) (P56817 46-501): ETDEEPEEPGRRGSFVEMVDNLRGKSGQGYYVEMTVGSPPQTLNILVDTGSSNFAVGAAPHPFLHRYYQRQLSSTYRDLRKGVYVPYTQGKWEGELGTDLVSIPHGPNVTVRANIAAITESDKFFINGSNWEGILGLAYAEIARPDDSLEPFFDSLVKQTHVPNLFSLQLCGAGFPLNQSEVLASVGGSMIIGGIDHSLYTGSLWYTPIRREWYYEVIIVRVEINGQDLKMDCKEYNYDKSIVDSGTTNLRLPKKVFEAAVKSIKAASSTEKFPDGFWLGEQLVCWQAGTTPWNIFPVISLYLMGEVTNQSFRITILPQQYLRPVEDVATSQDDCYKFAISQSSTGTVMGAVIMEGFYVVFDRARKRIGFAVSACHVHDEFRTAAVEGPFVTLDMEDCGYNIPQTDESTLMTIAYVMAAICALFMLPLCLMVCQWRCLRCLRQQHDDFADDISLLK
T1 sequence (P07339 65-412, species assumed): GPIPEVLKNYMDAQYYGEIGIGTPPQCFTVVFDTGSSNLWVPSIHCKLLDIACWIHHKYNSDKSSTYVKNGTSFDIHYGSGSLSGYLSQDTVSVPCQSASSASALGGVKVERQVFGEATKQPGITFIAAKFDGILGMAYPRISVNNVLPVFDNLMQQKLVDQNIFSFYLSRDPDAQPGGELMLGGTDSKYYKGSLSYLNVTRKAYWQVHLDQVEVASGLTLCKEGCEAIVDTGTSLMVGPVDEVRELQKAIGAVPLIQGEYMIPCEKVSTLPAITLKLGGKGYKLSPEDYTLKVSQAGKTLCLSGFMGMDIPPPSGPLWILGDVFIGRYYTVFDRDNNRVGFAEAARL

With `CC1(C)C(N)=N[C@](C)(c2cc(Oc3ccc(F)c(C(F)(F)F)n3)ccc2F)CS1(=O)=O` [Example 284, (5R)-5-(2-fluoro-5-((5-fluoro-6-(trifluoromethyl)-2-pyridinyl)oxy)phenyl)-2,2,5-trimethyl-5,6-dihydro-2H-1,4-thiazin-3-amine 1,1-dioxide], the IC50 in experiment [1] (setting [3]) is 769 nM; on Cathepsin D (Cat D) it was 79.1 µM; in experiment [2] (average IC50, cell assay) it was 1640 nM.
Consider `CC1(C)C(N)=N[C@](CF)(c2cc(NC(=O)c3ccc(OC(F)F)cn3)ccc2F)CS1(=O)=O` [Example 362, N-(3-((3S)-5-amino-3-(fluoromethyl)-6,6-dimethyl-1,1-dioxido-3,6-dihydro-2H-1,4-thiazin-3-yl)-4-fluorophenyl)-5-(difluoromethoxy)-2-pyridinecarboxamide], for which the IC50 in experiment [1] (setting [3]) stood at 0.3 nM; on Cathepsin D (Cat D) it was 303 µM; in experiment [2] (average IC50, HEK cell assay), 3.5 nM.
With `CC1(C)C(N)=N[C@](C)(c2cc(Nc3nccc4nc(OCC(F)F)cnc34)ccc2F)CS1(=O)=O` [Example 444, N-(3-((3R)-5-amino-3,6,6-trimethyl-1,1-dioxido-3,6-dihydro-2H-1,4-thiazin-3-yl)-4-fluorophenyl)-2-(2,2-difluoroethoxy)pyrido[3,4-b]pyrazin-5-amine], the IC50 in experiment [1] (setting [3]) came to 4.54 nM; at Cathepsin D (Cat D) it was 242 µM; in experiment [2] (average IC50, cell assay), 8.3 nM.
Take `CC1(C)C(N)=N[C@](C)(c2cc(NC(=O)c3cnc(OCC(F)(F)F)cn3)ccc2F)C(F)S1(=O)=O` (stereo partly drawn) [Example 333, N-(3-((3R)-5-amino-2-fluoro-3,6,6-trimethyl-1,1-dioxido-3,6-dihydro-2H-1,4-thiazin-3-yl)-4-fluorophenyl)-5-(2,2,2-trifluoroethoxy)-2-pyrazinecarboxamide]: the IC50 amounted to 1.5 nM in experiment [1] (setting [3]); 190 µM on Cathepsin D (Cat D); 16 nM in experiment [2] (average IC50, HEK cell assay).
`COc1cc(Cl)cnc1C(=O)Nc1ccc(F)c([C@]2(CF)CS(=O)(=O)C(C)(C)C(N)=N2)c1` [Example 382, N-(3-((3S)-5-amino-3-(fluoromethyl)-6,6-dimethyl-1,1-dioxido-3,6-dihydro-2H-1,4-thiazin-3-yl)-4-fluorophenyl)-5-chloro-3-methoxy-2-pyridinecarboxamide]: the IC50 in experiment [1] (setting [4]) was 1.8 nM; on Cathepsin D (Cat D), over 400 µM; in experiment [2], 17.3 nM.
In the case of `COc1cc(Cl)ccc1C(=O)Nc1ccc(F)c([C@]2(C)CS(=O)(=O)C(C)(C)C(N)=N2)c1` [Example 345, N-(3-((3R)-5-amino-3,6,6-trimethyl-1,1-dioxido-3,6-dihydro-2H-1,4-thiazin-3-yl)-4-fluorophenyl)-4-chloro-2-methoxybenzamide], the IC50 was determined as 31.3 nM in experiment [1] (setting [3]); 75.6 µM on Cathepsin D (Cat D); 71.3 nM in experiment [2] (average IC50, HEK cell assay).
For `CC1(C)C(N)=N[C@](C)(c2cc(Br)c[nH]c2=O)CS1(=O)=O` [Example 169, (R)-3-(5-amino-3,6,6-trimethyl-1,1-dioxido-3,6-dihydro-2H-1,4-thiazin-3-yl)-5-bromopyridin-2(1H)-one], the IC50 in experiment [1] was 21100 nM; on Cathepsin D (Cat D), over 400 µM; in experiment [2] (average IC50, cell assay) it was over 15600 nM.
Turning to `C[C@]1(F)C(N)=N[C@](C)(c2cc(NC(=O)c3ccc(F)cn3)ccc2F)CS1(=O)=O` [Example 322, N-(3-((3R,6R)-5-amino-6-fluoro-3,6-dimethyl-1,1-dioxido-3,6-dihydro-2H-1,4-thiazin-3-yl)-4-fluorophenyl)-5-fluoro-2-pyridinecarboxamide], the IC50 in experiment [1] (setting [3]) stood at 1.95 nM; at Cathepsin D (Cat D), 1220 µM; in experiment [2] (average IC50, HEK cell assay), 134 nM.
With `CC1(C)C(N)=N[C@](CF)(c2cc(NC(=O)c3cnc(OCCF)cn3)ccc2F)CS1(=O)=O` [Example 365, N-(3-((3S)-5-amino-3-(fluoromethyl)-6,6-dimethyl-1,1-dioxido-3,6-dihydro-2H-1,4-thiazin-3-yl)-4-fluorophenyl)-5-(2-fluoroethoxy)-2-pyrazinecarboxamide], the concentration for half-maximal inhibition (IC50) was 0.97 nM in experiment [1] (setting [3]); over 400 µM at Cathepsin D (Cat D); 44.7 nM in experiment [2] (average IC50, HEK cell assay).
With `Cc1cc(Cl)cnc1C(=O)Nc1ccc(F)c([C@]2(CF)CS(=O)(=O)C3(CC3)C(N)=N2)c1` [Example 216, N-(3-((6S)-8-amino-6-(fluoromethyl)-4,4-dioxido-4-thia-7-azaspiro[2.5]oct-7-en-6-yl)-4-fluorophenyl)-5-chloro-3-methyl-2-pyridinecarboxamide], the 50% inhibitory concentration (IC50) in experiment [1] (setting [5]) worked out at 0.54 nM; on Cathepsin D (Cat D), 132 µM; in experiment [2] (average IC50, HEK cells) it was 4.4 nM.
In the case of `CC1(C)C(N)=N[C@](C)(c2cc(Nc3ncnc4cc(Cl)cnc34)cnc2F)CS1(=O)=O` [Example 225, N-(5-((3R)-5-amino-3,6,6-trimethyl-1,1-dioxido-3,6-dihydro-2H-1,4-thiazin-3-yl)-6-fluoro-3-pyridinyl)-7-chloropyrido[3,2-d]pyrimidin-4-amine], the IC50 was 3.28 nM in experiment [1] (setting [3]); 33 µM on Cathepsin D (Cat D); 12.2 nM in experiment [2] (average IC50, cell assay).
For the compound `Cc1cc(OC(F)F)cnc1C(=O)Nc1ccc(F)c([C@]2(C)CS(=O)(=O)[C@@](C)(F)C(N)=N2)c1` [Example 321, N-(3-((3R,6R)-5-amino-6-fluoro-3,6-dimethyl-1,1-dioxido-3,6-dihydro-2H-1,4-thiazin-3-yl)-4-fluorophenyl)-5-(difluoromethoxy)-3-methyl-2-pyridinecarboxamide], the IC50 stood at 0.72 nM in experiment [1] (setting [3]); 387 µM at Cathepsin D (Cat D); 44.9 nM in experiment [2] (average IC50, HEK cell assay).
As for `CC1(C)C(N)=N[C@](C)(c2cc(C(=O)Nc3ccc(C#N)cc3O)ccc2F)CS1(=O)=O` [Example 173, (R)-3-(5-amino-3,6,6-trimethyl-1,1-dioxido-3,6-dihydro-2H-1,4-thiazin-3-yl)-N-(4-cyano-2-hydroxyphenyl)-4-fluorobenzamide], the IC50 in experiment [1] (setting [3]) is 2290 nM; at Cathepsin D (Cat D), 104 µM; in experiment [2] (average IC50, cell assay) it was over 15600 nM.
As for `CC1(C)C(N)=N[C@](C)(c2cc(Oc3cccc(C#N)n3)ccc2F)CS1(=O)=O` [Example 283, 6-(3-((3R)-5-amino-3,6,6-trimethyl-1,1-dioxido-3,6-dihydro-2H-1,4-thiazin-3-yl)-4-fluorophenoxy)-2-pyridinecarbonitrile], the IC50 was 91.9 nM in experiment [1] (setting [3]); 12.9 µM at Cathepsin D (Cat D); 82.8 nM in experiment [2] (average IC50, cell assay).
Consider `CC1(C)C(N)=N[C@](C)(c2cc(Oc3ccc4ccccc4c3)ccc2F)CS1(=O)=O` [Example 102, (R)-5-amino-3-(2-fluoro-5-(naphthalen-2-yloxy)phenyl)-3,6,6-trimethyl-3,6-dihydro-2H-1,4-thiazine 1,1-dioxide], for which the IC50 in experiment [1] (setting [4]) came to 2350 nM; at Cathepsin D (Cat D), 51.2 µM; in experiment [2] (Aβ40, 24 h incubation), 8040 nM.
Take `Cc1cc(OC(F)F)cnc1C(=O)Nc1ccc(F)c([C@]2(CF)CS(=O)(=O)C3(CC3)C(N)=N2)c1` [Example 217, N-(3-((6S)-8-amino-6-(fluoromethyl)-4,4-dioxido-4-thia-7-azaspiro[2.5]oct-7-en-6-yl)-4-fluorophenyl)-5-(difluoromethoxy)-3-methyl-2-pyridinecarboxamide]: the IC50 in experiment [1] (setting [5]) amounted to 1.2 nM; on Cathepsin D (Cat D) it was 46.8 µM; in experiment [2] (average IC50, HEK cells), 6.1 nM.
As to `CC1(C)C(N)=N[C@](CF)(c2cc(Nc3ncnc4cc(C#N)cnc34)ccc2F)CS1(=O)=O` [Example 236, 4-((3-((3S)-5-amino-3-(fluoromethyl)-6,6-dimethyl-1,1-dioxido-3,6-dihydro-2H-1,4-thiazin-3-yl)-4-fluorophenyl)amino)pyrido[3,2-d]pyrimidine-7-carbonitrile], the IC50 in experiment [1] (setting [3]) is 0.73 nM; at Cathepsin D (Cat D), 56.1 µM; in experiment [2] (average IC50, cell assay), 40.7 nM.
As to `Cc1cc(Cl)cnc1C(=O)Nc1cnc(F)c([C@]2(C)CS(=O)(=O)C3(CC3)C(N)=N2)c1` [Example 186, (R)—N-(5-(8-amino-6-methyl-4,4-dioxido-4-thia-7-azaspiro[2.5]oct-7-en-6-yl)-6-fluoropyridin-3-yl)-5-chloro-3-methylpicolinamide], the IC50 in experiment [1] (setting [5]) was determined as 2.4 nM; at Cathepsin D (Cat D), 65.7 µM; in experiment [2] (average IC50, HEK cells) it was 4.3 nM.
For `Cc1cc(C(F)F)cnc1C(=O)Nc1ccc(F)c([C@]2(C)CS(=O)(=O)C3(CCC3)C(N)=N2)c1` [Example 123, (R)—N-(3-(9-amino-7-methyl-5,5-dioxido-5-thia-8-azaspiro[3.5]non-8-en-7-yl)-4-fluorophenyl)-5-(difluoromethyl)-3-methylpicolinamide], the values for the IC50 (in experiment [1] (setting [4]); on Cathepsin D (Cat D); in experiment [2]) were 4.57 nM, 150 µM and 6.3 nM, respectively.
For `CC1(C)C(N)=N[C@](C)(c2cc(NC(=O)c3ccc(C(F)F)cn3)cnc2F)CS1(=O)=O` [Example 404, N-(5-((3R)-5-amino-3,6,6-trimethyl-1,1-dioxido-3,6-dihydro-2H-1,4-thiazin-3-yl)-6-fluoro-3-pyridinyl)-5-(difluoromethyl)-2-pyridinecarboxamide], the results for the IC50 (in experiment [1] (setting [4]); at Cathepsin D (Cat D); in experiment [2]) were 11 nM, 247 µM and 11.9 nM, respectively.
